Experimental findings from US9902696B2, “1,4-substituted piperidine derivatives” (Cephalon, Inc., priority 2015, dated 2018) are described below.

Counter-ions that a name gives are not always drawn.

T1 sequence (P49327 whole entry): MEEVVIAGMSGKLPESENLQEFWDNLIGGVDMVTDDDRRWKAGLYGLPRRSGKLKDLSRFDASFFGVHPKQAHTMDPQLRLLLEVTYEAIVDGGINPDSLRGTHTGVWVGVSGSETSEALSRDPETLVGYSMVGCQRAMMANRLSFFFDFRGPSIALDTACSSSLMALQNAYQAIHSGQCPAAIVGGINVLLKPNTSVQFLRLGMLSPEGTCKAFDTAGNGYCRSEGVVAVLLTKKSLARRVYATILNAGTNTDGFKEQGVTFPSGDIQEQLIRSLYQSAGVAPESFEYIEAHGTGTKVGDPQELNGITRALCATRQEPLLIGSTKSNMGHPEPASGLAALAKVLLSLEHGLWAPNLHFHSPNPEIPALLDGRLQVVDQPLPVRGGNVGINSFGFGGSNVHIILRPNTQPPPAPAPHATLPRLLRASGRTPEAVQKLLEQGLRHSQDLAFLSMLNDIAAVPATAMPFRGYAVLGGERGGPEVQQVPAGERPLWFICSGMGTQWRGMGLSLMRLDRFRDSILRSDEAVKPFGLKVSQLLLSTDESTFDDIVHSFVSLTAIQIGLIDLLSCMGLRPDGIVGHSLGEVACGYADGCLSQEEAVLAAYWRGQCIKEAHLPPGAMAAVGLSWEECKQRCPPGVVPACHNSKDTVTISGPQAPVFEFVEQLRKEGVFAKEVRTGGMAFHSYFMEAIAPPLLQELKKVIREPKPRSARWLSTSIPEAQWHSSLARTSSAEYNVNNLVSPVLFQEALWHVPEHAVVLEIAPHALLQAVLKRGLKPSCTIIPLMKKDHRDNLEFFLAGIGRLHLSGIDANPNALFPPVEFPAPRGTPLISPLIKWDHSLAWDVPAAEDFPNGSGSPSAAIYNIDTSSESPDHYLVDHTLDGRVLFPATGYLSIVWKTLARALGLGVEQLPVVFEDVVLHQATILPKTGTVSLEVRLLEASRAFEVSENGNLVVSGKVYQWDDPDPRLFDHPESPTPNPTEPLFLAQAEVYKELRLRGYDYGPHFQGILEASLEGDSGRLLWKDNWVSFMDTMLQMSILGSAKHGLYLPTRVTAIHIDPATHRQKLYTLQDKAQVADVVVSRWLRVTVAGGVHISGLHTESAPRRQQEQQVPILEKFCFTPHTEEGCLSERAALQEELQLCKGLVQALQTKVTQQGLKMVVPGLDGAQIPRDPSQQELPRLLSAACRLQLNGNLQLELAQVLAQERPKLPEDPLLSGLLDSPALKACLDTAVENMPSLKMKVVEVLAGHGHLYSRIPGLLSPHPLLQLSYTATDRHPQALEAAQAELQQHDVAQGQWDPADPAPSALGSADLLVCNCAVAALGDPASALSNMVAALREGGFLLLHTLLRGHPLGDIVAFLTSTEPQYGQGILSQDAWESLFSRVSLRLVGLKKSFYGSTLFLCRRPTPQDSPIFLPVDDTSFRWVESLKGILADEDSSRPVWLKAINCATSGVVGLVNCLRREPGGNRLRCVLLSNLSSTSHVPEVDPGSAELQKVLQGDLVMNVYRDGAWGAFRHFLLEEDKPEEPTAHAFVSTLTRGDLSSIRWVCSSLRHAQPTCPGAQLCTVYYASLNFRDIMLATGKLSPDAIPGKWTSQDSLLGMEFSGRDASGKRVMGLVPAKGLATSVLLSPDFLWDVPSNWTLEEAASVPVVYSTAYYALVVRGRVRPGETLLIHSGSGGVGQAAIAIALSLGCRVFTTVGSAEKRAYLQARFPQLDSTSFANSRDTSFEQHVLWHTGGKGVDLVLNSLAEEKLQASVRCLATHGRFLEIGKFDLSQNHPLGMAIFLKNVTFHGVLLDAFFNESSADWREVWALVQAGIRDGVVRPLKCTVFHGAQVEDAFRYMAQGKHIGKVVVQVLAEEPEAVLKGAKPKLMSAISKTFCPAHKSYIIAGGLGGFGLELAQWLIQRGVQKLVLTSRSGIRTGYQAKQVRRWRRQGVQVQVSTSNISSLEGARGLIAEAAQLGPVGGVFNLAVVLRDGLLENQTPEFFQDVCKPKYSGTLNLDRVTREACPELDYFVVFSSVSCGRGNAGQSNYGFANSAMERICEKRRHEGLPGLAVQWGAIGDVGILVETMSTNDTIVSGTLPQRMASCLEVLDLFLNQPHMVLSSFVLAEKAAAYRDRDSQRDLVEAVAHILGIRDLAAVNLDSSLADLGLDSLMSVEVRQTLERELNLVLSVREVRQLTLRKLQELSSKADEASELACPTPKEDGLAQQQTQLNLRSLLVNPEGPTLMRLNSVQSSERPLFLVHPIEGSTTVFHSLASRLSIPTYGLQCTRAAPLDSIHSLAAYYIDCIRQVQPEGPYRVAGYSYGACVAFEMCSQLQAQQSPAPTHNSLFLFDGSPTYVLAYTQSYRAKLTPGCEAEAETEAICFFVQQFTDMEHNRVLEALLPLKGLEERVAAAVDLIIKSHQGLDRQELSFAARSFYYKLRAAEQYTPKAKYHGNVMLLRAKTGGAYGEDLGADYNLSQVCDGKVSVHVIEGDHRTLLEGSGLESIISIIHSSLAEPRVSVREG

The test concerns the target T1, recombinant human baculovirus-expressed GST-tagged FASN (Homo sapiens, UniProt P49327).
T1 construct: GST
The test can be described thus: FASN enzyme activity assay, fluorescence-based detection of CoA with CPM. The note with it: 5 nM FASN, 150 μM NADPH, 10 μM acetyl-CoA, 25 μM malonyl-CoA, 90 minutes incubation; read-out: IC50 data for Additional Compounds of Formulae I-V(a): Activity. Format: biochemical. The gist of the method: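 Human GST-tagged FASN, baculovirus-expressed (5 nM), in 50 mM HEPES pH 7.5 with 150 μM NADPH, 10 μM acetyl-CoA, 25 μM malonyl-CoA, 0.5% DMSO; malonyl-CoA-started, 90 min. Released CoA detected with CPM (50 μM dilution), 30 min, fluorescence ex 390/em 530. IC50 from variable-slope sigmoidal fit of % inhibition versus log concentration.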
Turning to `Cc1c(-c2ccc(OC3CCN(C(=O)NOCC(C)C)CC3)cc2)ccc2cccnc12` [Example 544, N-Isobutoxy-4-[4-(8-methyl-7-quinolyl)phenoxy]piperidine-1-carboxamide], the IC50 was in the range of 1 to 99 nM.

On to `Cc1c(-c2ccc(OC3CCN(C(=O)NCCN(C)C)CC3)cc2)ccc2cccnc12` [Example 545, N-(2-Dimethylaminoethyl)-4-[4-(8-methyl-7-quinolyl)phenoxy]piperidine-1-carboxamide HCl], for which the IC50 lay within 1 to 99 nM.

As to `Cc1c(-c2ccc(OC3CCN(C(=O)OCCN4CCOCC4)CC3)cc2)ccc2cccnc12` [Example 546, 2-Morpholinoethyl 4-[4-(8-methyl-7-quinolyl)phenoxy]piperidine-1-carboxylate 2HCl], the IC50 lay in the range of 1000 to 10000 nM.

For `Cc1c(-c2ccc(OC3CCN(C(=O)OCCN4CCCC4)CC3)cc2)ccc2cccnc12` [Example 547, 2-Pyrrolidin-1-ylethyl 4-[4-(8-methyl-7-quinolyl)phenoxy]piperidine-1-carboxylate, 2HCl], the IC50 fell in the range of 1000 to 10000 nM.

Regarding `Cc1c(-c2ccc(OC3CCN(C(=O)NCCc4c[nH]cn4)CC3)cc2)ccc2cccnc12` [Example 548, N-[2-(1H-Imidazol-4-yl)ethyl]-4-[4-(8-methyl-7-quinolyl)phenoxy]piperidine-1-carboxamide, 2HCl], the IC50 is 1000 to 10000 nM.

Turning to `Cc1c(-c2ccc(OC3CCN(C(=O)NC4CCOCC4)CC3)cc2)ccc2cccnc12` [Example 549, 4-[4-(8-Methyl-7-quinolyl)phenoxy]-N-tetrahydropyran-4-yl-piperidine-1-carboxamide, HCl], the half-inhibitory concentration (IC50) is 1000 to 10000 nM.

As for `Cc1c(-c2ccc(OC3CCN(C(=O)OCC(C)C)CC3)cc2)ccc2cccnc12` [Example 550, Isobutyl 4-[4-(8-methyl-7-quinolyl)phenoxy]piperidine-1-carboxylate, HCl], the half-inhibitory concentration (IC50) lay within 1000 to 10000 nM.

On to `C=CCOC(=O)N1CCC(Oc2ccc(-c3ccc4cccnc4c3C)cc2)CC1` [Example 551, Allyl 4-[4-(8-methyl-7-quinolyl)phenoxy]piperidine-1-carboxylate, HCl], for which the IC50 is 1000 to 10000 nM.

Regarding `Cc1c(-c2ccc(OC3CCN(C(=O)NC4CCC4)CC3)cc2)ccc2cccnc12` [Example 552, N-Cyclobutyl-4-[4-(8-methyl-7-quinolyl)phenoxy]piperidine-1-carboxamide HCl], the half-inhibitory concentration (IC50) was in the range of 1000 to 10000 nM.

As to `Cc1c(-c2ccc(OC3CCN(C(=O)OCC4CC4)CC3)cc2)ccc2cccnc12` [Example 553, Cyclopropylmethyl 4-[4-(8-methyl-7-quinolyl)phenoxy]piperidine-1-carboxylate HCl], the IC50 lay in the range of 1000 to 10000 nM.

For the molecule `Cc1c(-c2ccc(OC3CCN(C(=O)NO)CC3)cc2)ccc2cccnc12` [Example 554, 4-[4-(8-Methyl-7-quinolyl)phenoxy]piperidine-1-carbohydroxamic acid, HCl], the IC50 lay within 1000 to 10000 nM.

With `COCCOC(=O)N1CCC(Oc2ccc(-c3ccc4cccnc4c3C)cc2)CC1` [Example 555, 2-Methoxyethyl 4-[4-(8-methyl-7-quinolyl)phenoxy]piperidine-1-carboxylate, HCl], the IC50 is 1000 to 10000 nM.

On to `Cc1c(-c2ccc(OC3CCN(C(=O)OC4CCOCC4)CC3)cc2)ccc2cccnc12` [Example 556, Tetrahydropyran-4-yl 4-[4-(8-methyl-7-quinolyl)phenoxy]piperidine-1-carboxylate], for which the IC50 lay within 1000 to 10000 nM.

For the molecule `Cc1c(-c2ccc(OC3CCN(C(=O)OC4CCCOC4)CC3)cc2)ccc2cccnc12` (stereo not shown) [Example 557, Tetrahydropyran-3-yl 4-[4-(8-methyl-7-quinolyl)phenoxy]piperidine-1-carboxylate], the IC50 is 1000 to 10000 nM.

For `Cc1c(-c2ccc(OC3CCN(C(=O)N4CCCCO4)CC3)cc2)ccc2cccnc12` [Example 558, [4-[4-(8-Methyl-7-quinolyl)phenoxy]-1-piperidyl]-(oxazinan-2-yl)methanone], the 50% inhibitory concentration (IC50) lay in the range of 1000 to 10000 nM.

`Cc1c(-c2ccc(OC3CCN(C(=O)OC4CCOC4)CC3)cc2)ccc2cccnc12` (stereo not shown) [Example 559, Tetrahydrofuran-3-yl 4-[4-(8-methyl-7-quinolyl)phenoxy]piperidine-1-carboxylate]: the IC50 was in the range of 1 to 99 nM.

For the molecule `Cc1c(-c2ccc(OC3CCN(C(=O)NCC4CCC4)CC3)cc2)ccc2cccnc12` [Example 560, N-(Cyclobutylmethyl)-4-[4-(8-methyl-7-quinolyl)phenoxy]piperidine-1-carboxamide], the IC50 was 100 to 999 nM.

Take `Cc1c(-c2ccc(OC3CCN(C(=O)OC4CCC4)CC3)cc2)ccc2cccnc12` [Example 561, Cyclobutyl 4-[4-(8-methyl-7-quinolyl)phenoxy]piperidine-1-carboxylate]: the IC50 is 1000 to 10000 nM.

Regarding `Cc1c(-c2ccc(OC3CCN(C(=O)N4CCCCCC4)CC3)cc2)ccc2cccnc12` [Example 562, Azepan-1-yl-[4-[4-(8-methyl-7-quinolyl)phenoxy]-1-piperidyl]methanone], the half-maximal inhibitory concentration (IC50) fell in the range of 1000 to 10000 nM.

For `CCONC(=O)N1CCC(Oc2ccc(-c3ccc4nccn4c3Cl)cc2)CC1` [Example 573, 4-[4-(5-Chloroimidazo[1,2-a]pyridin-6-yl)phenoxy]-N-ethoxy-piperidine-1-carboxamide], the IC50 fell in the range of 1000 to 10000 nM.

On to `CCCONC(=O)N1CCC(Oc2ccc(-c3ccc4nccn4c3Cl)cc2)CC1` [Example 576, 4-[4-(5-Chloroimidazo[1,2-a]pyridin-6-yl)phenoxy]-N-propoxy-piperidine-1-carboxamide], for which the IC50 fell in the range of 1000 to 10000 nM.

As to `CCNC(=O)N1CCC(Oc2ccc(-c3ccc4nccn4c3C)cc2)CC1` [Example 592, N-Ethyl-4-[4-(5-methylimidazo[1,2-a]pyridin-6-yl)phenoxy]piperidine-1-carboxamide], the IC50 lay within 1 to 99 nM.

For the molecule `Cc1c(-c2ccc(OC3CCN(C(=O)NCC(C)C)CC3)cc2)ccc2nccn12` [Example 593, N-Isobutyl-4-[4-(5-methylimidazo[1,2-a]pyridin-6-yl)phenoxy]piperidine-1-carboxamide], the IC50 lay in the range of 1000 to 10000 nM.

For the molecule `CCCNC(=O)N1CCC(Oc2ccc(-c3ccc4nccn4c3C)cc2)CC1` [Example 594, 4-[4-(5-Methylimidazo[1,2-a]pyridin-6-yl)phenoxy]-N-propyl-piperidine-1-carboxamide], the IC50 lay in the range of 1 to 99 nM.

For `Cc1c(-c2ccc(OC3CCN(C(=O)NCC4CC4)CC3)cc2)ccc2nccn12` [Example 595, N-(Cyclopropylmethyl)-4-[4-(5-methylimidazo[1,2-a]pyridin-6-yl)-phenoxy]piperidine-1-carboxamide], the IC50 lay in the range of 100 to 999 nM.

As to `Cc1c(-c2ccc(OC3CCN(C(=O)Nc4cccnc4)CC3)cc2)ccc2nccn12` [Example 596, 4-[4-(5-Methylimidazo[1,2-a]pyridin-6-yl)phenoxy]-N-(3-pyridyl)piperidine-1-carboxamide], the 50% inhibitory concentration (IC50) is 1 to 99 nM.

For the molecule `COCCNC(=O)N1CCC(Oc2ccc(-c3ccc4nccn4c3C)cc2)CC1` [Example 597, N-(2-Methoxyethyl)-4-[4-(5-methylimidazo[1,2-a]pyridin-6-yl)phenoxy]-piperidine-1-carboxamide], the IC50 lay within 1000 to 10000 nM.

As to `Cc1c(-c2ccc(OC3CCN(C(=O)N4CCN(C)CC4)CC3)cc2)ccc2nccn12` [Example 598, [4-[4-(5-Methylimidazo[1,2-a]pyridin-6-yl)phenoxy]-1-piperidyl]-(4-methylpiperazin-1-yl)methanone], the IC50 lay within 100 to 999 nM.
